Experiments:
Cannabinoid receptor 1 [1] = target: T1, Cannabinoid receptor 1 (Rattus norvegicus, UniProt P20272); assay: Displacement of [3H]HU-243 from Sabra rat brain synaptosome CB1 receptor assessed as inhibition constant incubated for 90 mins; format: subcellular
Cannabinoid receptor 2 [2] = target: T2, Cannabinoid receptor 2 (Homo sapiens, UniProt P34972); assay: Displacement of [3H]HU-243 from CB2 receptor (unknown origin) extracted from green monkey COS-7 cell membrane assessed as inhibition constant incubated for 90 mins; format: cell membranes
T2 sequence (P34972 whole entry): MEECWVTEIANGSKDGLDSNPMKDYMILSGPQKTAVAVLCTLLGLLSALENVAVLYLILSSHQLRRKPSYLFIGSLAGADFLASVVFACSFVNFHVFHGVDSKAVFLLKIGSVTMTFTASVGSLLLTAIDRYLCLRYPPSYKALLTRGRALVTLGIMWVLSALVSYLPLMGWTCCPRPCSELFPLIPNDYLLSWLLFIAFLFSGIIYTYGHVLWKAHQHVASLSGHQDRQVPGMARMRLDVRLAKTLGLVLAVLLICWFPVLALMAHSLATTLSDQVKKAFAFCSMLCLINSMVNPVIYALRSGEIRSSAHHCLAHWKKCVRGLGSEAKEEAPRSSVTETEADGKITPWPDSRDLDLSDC

[3] = Inhibition of [14C]-arachidonoylethanolamide uptake in rat RBL-2H3 cells assessed as increase in AEA level incubated for 5 mins by scintillation counting; format: functional, cell-based; conditions: RBL-2H3, 5 min
Cannabinoid receptor 1 [4] = target: T3, Cannabinoid receptor 1 (Homo sapiens, UniProt P21554); assay: Binding affinity to CB1 receptor (unknown origin) assessed as inhibition constant
T3 sequence (P21554 whole entry): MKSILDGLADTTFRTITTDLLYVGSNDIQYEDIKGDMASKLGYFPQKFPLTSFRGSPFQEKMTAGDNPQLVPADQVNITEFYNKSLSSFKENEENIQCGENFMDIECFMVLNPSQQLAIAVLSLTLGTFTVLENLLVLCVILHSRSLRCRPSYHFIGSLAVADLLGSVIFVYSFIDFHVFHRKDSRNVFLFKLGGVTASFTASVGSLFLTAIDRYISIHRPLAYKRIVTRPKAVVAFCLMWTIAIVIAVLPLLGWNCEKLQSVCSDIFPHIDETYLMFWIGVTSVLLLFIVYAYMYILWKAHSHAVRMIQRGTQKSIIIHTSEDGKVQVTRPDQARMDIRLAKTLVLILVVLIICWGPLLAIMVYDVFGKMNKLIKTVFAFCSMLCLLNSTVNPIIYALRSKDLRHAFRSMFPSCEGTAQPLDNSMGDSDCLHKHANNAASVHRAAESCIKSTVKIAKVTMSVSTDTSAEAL

Cannabinoid receptor 2 [5] = target: T2, Cannabinoid receptor 2; assay: Binding affinity to CB2 receptor (unknown origin) assessed as inhibition constant
[6] = Selectivity ratio of Ki for CB1 receptor (unknown origin) to Ki for CB2 receptor (unknown origin)
Cannabinoid receptor 1 [7] = target: T3, Cannabinoid receptor 1; assay: Displacement of [3H]CP-55,940 from human CB1 receptor extracted from HEK293 cell membrane assessed as inhibition constant incubated for 90 mins by liquid scintillation spectrophotometric analysis; format: cell membranes
Cannabinoid receptor 2 [8] = target: T2, Cannabinoid receptor 2; assay: Displacement of [3H]CP-55,940 from human CB2 receptor extracted from HEK293 cell membrane assessed as inhibition constant incubated for 90 mins by liquid scintillation spectrophotometric analysis; format: cell membranes
[9] = target: Transient receptor potential cation channel subfamily V member 1 (Homo sapiens, UniProt Q8NER1); assay: Agonist activity at human TRPV1 receptor expressed in HEK293 cells assessed as effect on [Ca2+]i preincubated with capsazepine for 30 mins followed by compound addition by Fluo-3 probe based fluorescence analysis; format: cell-based
Transient receptor potential cation channel subfamily V member 1, sequence (Q8NER1 whole entry): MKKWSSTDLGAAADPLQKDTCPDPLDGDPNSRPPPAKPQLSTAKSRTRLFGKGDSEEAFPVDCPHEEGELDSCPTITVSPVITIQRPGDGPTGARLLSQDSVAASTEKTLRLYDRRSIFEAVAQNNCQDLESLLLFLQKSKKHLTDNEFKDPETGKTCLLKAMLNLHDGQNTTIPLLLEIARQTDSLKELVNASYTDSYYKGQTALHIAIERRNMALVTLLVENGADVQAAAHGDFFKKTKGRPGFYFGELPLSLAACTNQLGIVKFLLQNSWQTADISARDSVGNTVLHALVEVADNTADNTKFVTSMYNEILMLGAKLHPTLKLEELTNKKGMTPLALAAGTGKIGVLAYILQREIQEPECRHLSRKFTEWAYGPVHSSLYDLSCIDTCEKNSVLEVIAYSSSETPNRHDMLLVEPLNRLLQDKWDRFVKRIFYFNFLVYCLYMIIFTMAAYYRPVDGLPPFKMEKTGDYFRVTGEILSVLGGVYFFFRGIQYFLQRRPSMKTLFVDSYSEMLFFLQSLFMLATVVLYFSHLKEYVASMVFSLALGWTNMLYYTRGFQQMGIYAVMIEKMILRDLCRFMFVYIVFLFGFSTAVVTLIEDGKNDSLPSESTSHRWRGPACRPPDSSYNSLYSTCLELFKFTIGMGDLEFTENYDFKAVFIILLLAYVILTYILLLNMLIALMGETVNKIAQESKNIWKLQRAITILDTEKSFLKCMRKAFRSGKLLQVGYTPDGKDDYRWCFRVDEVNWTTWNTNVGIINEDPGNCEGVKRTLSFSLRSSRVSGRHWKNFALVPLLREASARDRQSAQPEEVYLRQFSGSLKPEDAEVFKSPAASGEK

[10] = target: T4, Fatty-acid amide hydrolase 1 (Mus musculus, UniProt O08914); assay: Inhibition of FAAH-mediated [14C]-AEA hydrolysis in mouse N18TG2 cell membrane incubated for 30 mins by scintillation counting; format: cell membranes
T4 sequence (O08914 whole entry): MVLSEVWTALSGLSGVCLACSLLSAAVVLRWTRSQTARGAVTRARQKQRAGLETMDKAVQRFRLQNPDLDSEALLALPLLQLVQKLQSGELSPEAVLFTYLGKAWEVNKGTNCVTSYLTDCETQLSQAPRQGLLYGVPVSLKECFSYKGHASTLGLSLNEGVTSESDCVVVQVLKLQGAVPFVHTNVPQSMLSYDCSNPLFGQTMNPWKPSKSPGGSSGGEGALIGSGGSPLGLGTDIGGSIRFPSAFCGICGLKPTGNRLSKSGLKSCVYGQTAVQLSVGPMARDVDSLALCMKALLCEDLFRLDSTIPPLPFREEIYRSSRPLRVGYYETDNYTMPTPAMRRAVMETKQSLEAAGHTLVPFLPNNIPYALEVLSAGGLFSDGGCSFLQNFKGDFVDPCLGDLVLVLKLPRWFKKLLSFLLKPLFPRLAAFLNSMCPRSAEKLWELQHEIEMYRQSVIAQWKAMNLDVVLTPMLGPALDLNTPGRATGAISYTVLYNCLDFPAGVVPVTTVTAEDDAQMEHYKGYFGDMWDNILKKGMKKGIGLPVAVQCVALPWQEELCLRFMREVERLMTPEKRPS

Homo sapiens = species on record: Homo sapiens; assay: Selectivity ratio of Ki for human CB1 receptor extracted from HEK293 cell membrane to Ki for human CB2 receptor extracted from HEK293 cell membrane
Cannabinoid receptor 1 [11] = target: T1, Cannabinoid receptor 1; assay: Displacement of [3H]CP-55,940 from Sabra rat brain synaptosome CB1 receptor assessed as inhibition constant incubated for 90 mins; format: subcellular
Cannabinoid receptor 2 [12] = target: T2, Cannabinoid receptor 2; assay: Displacement of [3H]CP-55,940 from human CB2 receptor extracted from CHO cell membrane assessed as inhibition constant incubated for 90 mins; format: cell membranes

T1 sequence (P20272 whole entry): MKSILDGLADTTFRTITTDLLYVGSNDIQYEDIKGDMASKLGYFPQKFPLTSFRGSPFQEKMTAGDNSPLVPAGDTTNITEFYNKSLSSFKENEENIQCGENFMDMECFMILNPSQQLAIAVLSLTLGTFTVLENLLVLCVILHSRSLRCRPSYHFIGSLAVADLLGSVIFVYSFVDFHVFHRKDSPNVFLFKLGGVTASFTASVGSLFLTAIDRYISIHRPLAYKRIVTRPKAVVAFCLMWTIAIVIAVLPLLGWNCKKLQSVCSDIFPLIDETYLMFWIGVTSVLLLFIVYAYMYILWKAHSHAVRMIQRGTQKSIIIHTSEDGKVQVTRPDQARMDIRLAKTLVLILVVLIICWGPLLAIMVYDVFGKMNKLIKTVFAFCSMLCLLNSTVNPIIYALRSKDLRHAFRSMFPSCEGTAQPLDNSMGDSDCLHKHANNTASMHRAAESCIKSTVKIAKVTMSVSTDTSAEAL

## C=C(C)[C@@H]1CCC(C)=C[C@H]1c1c(O)cc(C(C)(C)CCCCCC)cc1O
Cannabinoid receptor 1 [1]
  Ki: > 10000 nM
Cannabinoid receptor 2 [2]
  Ki: 1800 nM
[3]
  IC50: 14000 nM

## C=C(C)[C@@H]1CCC(C(=O)O)=C[C@H]1c1c(O)cc(C(C)(C)CCCCCC)cc1O
Cannabinoid receptor 1 [4]
  Ki: > 1000 nM
Cannabinoid receptor 2 [5]
  Ki: > 1000 nM

## COc1cc(C(C)(C)CCCCCCN=C=S)cc(OC)c1[C@H]1C=C(CO)[C@H]2C[C@@H]1C2(C)C
Cannabinoid receptor 1 [4]
  Ki: 2670 nM
Cannabinoid receptor 2 [5]
  Ki: 13.1 nM
[6]
  Ratio Ki: 203

## C=C(C)C1CCC(C)=CC1O (configuration not stated)
Cannabinoid receptor 1 [7]
  Ki: > 1000 nM
Cannabinoid receptor 2 [8]
  Ki: 375 nM

## C=C(C)[C@H]1CCC(C)=C[C@@H]1c1c(O)cc(CCCCC)cc1O
[9]
  EC50: 3200 nM
[3]
  IC50: 17000 nM
[10]
  IC50: 63500 nM

## CCCCCCC(C)(C)c1cc(OC)c([C@@H]2C=C(CO)[C@@H]3C[C@H]2C3(C)C)c(OC)c1 [ONTERNABEZ]
Cannabinoid receptor 1 [4]
  Ki: > 1000 nM

## C=C(C)[C@H]1CCC(C)=C[C@@H]1c1c(O)cc(C(C)(C)CCCCCC)cc1O
Cannabinoid receptor 1 [1]
  Ki: 17.4 nM
Cannabinoid receptor 2 [2]
  Ki: 211 nM
[3]
  IC50: 10000 nM

## C=C(C)[C@H]1CCC(CO)=C[C@@H]1c1c(O)cc(C(C)(C)CCCCCC)cc1O
Cannabinoid receptor 1 [1]
  Ki: 2.5 nM
Cannabinoid receptor 2 [2]
  Ki: 44 nM
[3]
  IC50: 7000 nM

## C=C(C)[C@@H]1CCC(C)=C[C@H]1c1c(O)cc(CCCCC)c(C(=O)OC)c1O
Cannabinoid receptor 1 [7]
  Ki: 3.1 nM
Cannabinoid receptor 2 [8]
  Ki: 0.8 nM
Homo sapiens
  Ratio Ki: 3.9

## C=C(C)[C@@H]1CCC(C)=C[C@H]1c1c(O)cc(CCC)cc1O [CANNABIDIVARIN]
Cannabinoid receptor 1 [4]
  Ki: > 1000 nM

## C=C(C)[C@H]1CCC(C)=C[C@@H]1c1c(O)cc(CCC)c(C(=O)OC)c1O
Cannabinoid receptor 1 [7]
  Ki: 345 nM
Cannabinoid receptor 2 [8]
  Ki: 28 nM
Homo sapiens
  Ratio Ki: 12.3

## C=C(C)[C@H]1CCC(C(=O)O)=C[C@@H]1c1c(O)cc(C(C)(C)CCCCCC)cc1O
Cannabinoid receptor 1 [4]
  Ki: 5.8 nM
Cannabinoid receptor 2 [5]
  Ki: 155 nM
[6]
  Ratio Ki: 0.03

## CCCCCc1cc(O)c([C@@H]2C=C(CO)CC[C@H]2C(C)C)c(O)c1
Cannabinoid receptor 1 [11]
  Ki: > 1000 nM
Cannabinoid receptor 2 [12]
  Ki: > 1000 nM

Source: ChEMBL document CHEMBL6078669, “Stereoisomers of cannabidiols and their pharmacological activities - A potentially novel direction for cannabinoids” (Bioorg Med Chem, 2025)
